Assay [1] concerns the target T1, recombinant guanylate cyclase reporter cell line (Rattus norvegicus, UniProt P19686+P20595).
T1 construct: expressed in transfected cells
T1 sequence (P19686 1-690): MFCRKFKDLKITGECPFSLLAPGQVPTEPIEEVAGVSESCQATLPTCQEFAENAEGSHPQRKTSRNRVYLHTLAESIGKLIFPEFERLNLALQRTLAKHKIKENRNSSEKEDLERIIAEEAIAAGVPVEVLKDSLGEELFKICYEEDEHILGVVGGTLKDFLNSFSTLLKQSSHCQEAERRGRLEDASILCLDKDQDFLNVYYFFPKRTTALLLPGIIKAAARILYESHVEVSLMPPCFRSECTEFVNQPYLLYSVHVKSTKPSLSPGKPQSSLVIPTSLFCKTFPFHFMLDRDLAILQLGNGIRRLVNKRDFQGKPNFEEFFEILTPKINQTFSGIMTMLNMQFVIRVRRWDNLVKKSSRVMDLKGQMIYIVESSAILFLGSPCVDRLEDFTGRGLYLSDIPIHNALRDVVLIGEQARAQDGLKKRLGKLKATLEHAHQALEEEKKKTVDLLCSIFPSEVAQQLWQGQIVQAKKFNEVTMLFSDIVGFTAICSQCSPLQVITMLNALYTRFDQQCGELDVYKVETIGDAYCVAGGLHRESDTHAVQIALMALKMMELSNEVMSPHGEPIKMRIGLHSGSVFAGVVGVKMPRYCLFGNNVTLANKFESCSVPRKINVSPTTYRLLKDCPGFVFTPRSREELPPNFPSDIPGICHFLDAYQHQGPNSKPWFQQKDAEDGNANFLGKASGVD
T1 sequence (P20595 1-619): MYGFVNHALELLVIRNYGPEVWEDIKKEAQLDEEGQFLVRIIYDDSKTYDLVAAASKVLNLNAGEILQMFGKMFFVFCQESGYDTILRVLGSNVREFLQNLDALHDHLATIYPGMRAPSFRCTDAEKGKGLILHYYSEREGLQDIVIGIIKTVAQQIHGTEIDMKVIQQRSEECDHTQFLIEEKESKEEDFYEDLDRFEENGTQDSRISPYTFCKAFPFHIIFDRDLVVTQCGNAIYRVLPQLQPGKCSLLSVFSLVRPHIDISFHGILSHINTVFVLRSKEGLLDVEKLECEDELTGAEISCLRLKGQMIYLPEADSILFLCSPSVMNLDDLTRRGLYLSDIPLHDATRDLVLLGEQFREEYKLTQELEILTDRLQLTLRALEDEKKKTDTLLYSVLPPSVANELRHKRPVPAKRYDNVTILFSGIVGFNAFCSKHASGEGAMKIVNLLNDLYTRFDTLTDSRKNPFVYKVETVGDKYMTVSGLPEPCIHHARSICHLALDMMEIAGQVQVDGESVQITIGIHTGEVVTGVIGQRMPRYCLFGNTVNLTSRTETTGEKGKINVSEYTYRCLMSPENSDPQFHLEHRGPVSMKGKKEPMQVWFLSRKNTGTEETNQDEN
Nature of the assay: Effect on a recombinant guanylate cyclase reporter cell line. Type of assay: cell-based. The following applies: MEC = minimum effective concentration; in some cases means of individual determinations. The essentials:
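Values are reported as MEC, sometimes averaged over individual determinations. The test system is a reporter cell line expressing recombinant rat guanylate cyclase.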

The target of assay [2] is T2, human phosphodiesterase 5 (PDE 5) (Homo sapiens, UniProt O76074).
T2 construct: PDE 5 preparations are obtained from human platelets by disruption; from tissue; host or cells: human platelets
Nature of the assay: Inhibition of human phosphodiesterase 5 (PDE 5). Type of assay: biochemical. Conditions: PDE 5 preparation from human platelets; in some cases means of individual determinations. The essentials: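 IC50 comes from percent inhibition over a 1:3 series with final levels of 4 to 0.0018 μM. Reaction: tritiated cGMP tracer (0.025 μCi) with platelet-derived, Mono Q-purified enzyme, 1 h at room temperature in Tris pH 7.5, under 70% turnover. Read-out by scintillation proximity beads.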

The structures appear in SMILES notation.

The record followed here is US20170233413A1, “SUBSTITUTED ANNULATED PYRIMIDINES AND USE THEREOF” (Bayer Pharma Aktiengesellschaft, priority 2014, published 2017).

For the compound `Cn1cnc(NC(=O)c2nc(-c3nn(Cc4ccccc4F)c4ncccc34)nc3c2C(C)(C)C(=O)N3)n1` [Example 109, 2-[1-(2-fluorobenzyl)-1H-pyrazolo[3,4-b]pyridin-3-yl]-5,5-dimethyl-N-(1-methyl-1H-1,2,4-triazol-3-yl)-6-oxo-6,7-dihydro-5H-pyrrolo[2,3-d]pyrimidine-4-carboxamide], the MEC in assay [1] stood at 0.3 µM. The IC50 (in general, the midpoint of a concentration-inhibition curve) in assay [2] came to 39 nM.
Regarding `CN(C(=O)c1nc(-c2nn(Cc3ccccc3F)c3cc(Cl)ccc23)nc2c1C(C)(C)C(=O)N2)C1CC1` [Example 46], the MEC in assay [1] came to 0.03 µM. Moreover, in assay [2], inhibition was half-maximal at 1000 nM (IC50).
In the same order, the values of `CCNC(=O)c1nc(-c2nn(Cc3ccccc3F)c3ncccc23)nc2c1C(C)(C)C(=O)N2` [Example 129, N-ethyl-2-[1-(2-fluorobenzyl)-1H-pyrazolo[3,4-b]pyridin-3-yl]-5,5-dimethyl-6-oxo-6,7-dihydro-5H-pyrrolo[2,3-d]pyrimidine-4-carboxamide] are 0.1 µM and 10 nM.
Turning to `CCCCNC(=O)c1nc(-c2nn(Cc3ccccc3F)c3ncccc23)nc2c1C(C)(C)C(=O)N2` [Example 121, N-butyl-2-[1-(2-fluorobenzyl)-1H-pyrazolo[3,4-b]pyridin-3-yl]-5,5-dimethyl-6-oxo-6,7-dihydro-5H-pyrrolo[2,3-d]pyrimidine-4-carboxamide], the MEC in assay [1] turned out to be 0.3 µM. Further, the IC50 in assay [2] came to 27 nM.
Turning to `CC1(C)C(=O)Nc2nc(-c3nn(Cc4ccccc4F)c4cc(Cl)ccc34)nc(C(=O)N3CCCC3)c21` [Example 48], the MEC in assay [1] is 0.1 µM. Half-maximal inhibition in assay [2] (IC50) required 1100 nM.
On to `CC1(C)C(=O)Nc2nc(-c3nn(Cc4ccccc4F)c4ncccc34)nc(C(=O)Nc3cnccn3)c21` [Example 108, 2-[1-(2-fluorobenzyl)-1H-pyrazolo[3,4-b]pyridin-3-yl]-5,5-dimethyl-6-oxo-N-(pyrazin-2-yl)-6,7-dihydro-5H-pyrrolo[2,3-d]pyrimidine-4-carboxamide], for which the MEC in assay [1] was 0.3 µM. For the same compound, the IC50 in assay [2] is 25 nM.
In the same order, the values of `CC1(C)C(=O)Nc2nc(-c3nn(Cc4ccccc4F)c4cc(Cl)ccc34)nc(C(=O)NCC3CC3)c21` [Example 42, 2-[6-Chloro-1-(2-fluorobenzyl)-1H-indazol-3-yl]-N-(cyclopropylmethyl)-5,5-dimethyl-6-oxo-6,7-dihydro-5H-pyrrolo[2,3-d]pyrimidine-4-carboxamide] are 0.3 µM and 74 nM.
As for `CC1(C)C(=O)Nc2nc(-c3nn(Cc4ccccc4F)c4ncccc34)nc(C(=O)Nc3nncs3)c21` [Example 93, 2-[1-(2-fluorobenzyl)-1H-pyrazolo[3,4-b]pyridin-3-yl]-5,5-dimethyl-6-oxo-N-(1,3,4-thiadiazol-2-yl)-6,7-dihydro-5H-pyrrolo[2,3-d]pyrimidine-4-carboxamide], the MEC in assay [1] amounted to 0.1 µM. The compound further returned a half-inhibitory concentration (IC50) in assay [2] of 55 nM.
As to `CCCCCNC(=O)c1nc(-c2nn(Cc3ccccc3F)c3ncccc23)nc2c1C(C)(C)C(=O)N2` [Example 131, 2-[1-(2-Fluorobenzyl)-1H-pyrazolo[3,4-b]pyridin-3-yl]-5,5-dimethyl-6-oxo-N-pentyl-6,7-dihydro-5H-pyrrolo[2,3-d]pyrimidine-4-carboxamide], the MEC in assay [1] was 0.3 µM. Besides, the IC50 in assay [2] was 38 nM.
As to `CC1(C)C(=O)Nc2nc(-c3nn(Cc4ccccc4F)c4ncccc34)nc(C(=O)Nc3cccnc3)c21` [Example 89, 2-[1-(2-fluorobenzyl)-1H-pyrazolo[3,4-b]pyridin-3-yl]-5,5-dimethyl-6-oxo-N-(pyridin-3-yl)-6,7-dihydro-5H-pyrrolo[2,3-d]pyrimidine-4-carboxamide], the MEC in assay [1] is 0.3 µM. Half-maximal inhibition in assay [2] (IC50) required 9 nM.
On to `CC1(C)C(=O)Nc2nc(-c3nn(Cc4ccccc4F)c4ncccc34)nc(C(=O)NC3CCCC3)c21` [Example 126, N-cyclopentyl-2-[1-(2-fluorobenzyl)-1H-pyrazolo[3,4-b]pyridin-3-yl]-5,5-dimethyl-6-oxo-6,7-dihydro-5H-pyrrolo[2,3-d]pyrimidine-4-carboxamide], for which the MEC in assay [1] worked out at 0.3 µM. In assay [2], this compound displayed an IC50 of 6 nM.
With `CC1(C)C(=O)Nc2nc(-c3nn(Cc4ncccc4F)c4ncc(F)cc34)nc(C(=O)NC3CC3)c21` [Example 32], the MEC in assay [1] was determined as 1 µM. The compound further registered an IC50 in assay [2] of 12 nM.
In the case of `CC1(C)C(=O)Nc2nc(-c3nn(Cc4ccccc4F)c4ncccc34)nc(C(=O)NCC3CC3)c21` [Example 84, N-(cyclopropylmethyl)-2-[1-(2-fluorobenzyl)-1H-pyrazolo[3,4-b]pyridin-3-yl]-5,5-dimethyl-6-oxo-6,7-dihydro-5H-pyrrolo[2,3-d]pyrimidine-4-carboxamide], in assay [1], the MEC was 0.1 µM. In assay [2], this compound had an IC50 of 23 nM.
In the same order, the values of `CC(C)N(C)C(=O)c1nc(-c2nn(Cc3ccccc3F)c3ncccc23)nc2c1C(C)(C)C(=O)N2` [Example 112, 2-[1-(2-fluorobenzyl)-1H-pyrazolo[3,4-b]pyridin-3-yl]-N,5,5-trimethyl-6-oxo-N-(propan-2-yl)-6,7-dihydro-5H-pyrrolo[2,3-d]pyrimidine-4-carboxamide] are 0.03 µM and 93 nM.
Consider `Cc1nc2c(cc1F)c(-c1nc3c(c(C(N)=O)n1)C(C)(C)C(=O)N3)nn2Cc1c(F)ccc(F)c1F` [Example 6, 2-[5-Fluoro-6-methyl-1-(2,3,6-trifluorobenzyl)-1H-pyrazolo[3,4-b]pyridin-3-yl]-5,5-dimethyl-6-oxo-6,7-dihydro-5H-pyrrolo[2,3-d]pyrimidine-4-carboxamide], for which the MEC in assay [1] came out at 0.2 µM. This compound also showed an IC50 in assay [2] of 140 nM.
Turning to `CC1(C)C(=O)Nc2nc(-c3nn(Cc4ccccc4F)c4ncc(F)cc34)nc(C(=O)NC3CC3)c21` [Example 28], in assay [1], the MEC was determined as 0.03 µM. The compound also came in with an IC50 in assay [2] of 5.2 nM.
On to `CC1(C)C(=O)Nc2nc(-c3nn(Cc4ccccc4F)c4ncc(F)cc34)nc(C(=O)NCC(F)(F)F)c21` [Example 50], for which the MEC in assay [1] came out at 0.1 µM. The compound further came in with an IC50 in assay [2] of 19 nM.
Consider `CC1(C)C(=O)Nc2nc(-c3nn(Cc4ccccc4F)c4ncccc34)nc(C(=O)NC3(C4CC4)CC3)c21` [Example 82, N-[1,1′-bi(cyclopropyl)-1-yl]-2-[1-(2-fluorobenzyl)-1H-pyrazolo[3,4-b]pyridin-3-yl]-5,5-dimethyl-6-oxo-6,7-dihydro-5H-pyrrolo[2,3-d]pyrimidine-4-carboxamide], for which the MEC in assay [1] was determined as 0.1 µM. In assay [2], this compound returned an IC50 of 8.6 nM.
In the case of `CC(C)(O)CNC(=O)c1nc(-c2nn(Cc3ccccc3F)c3ncc(F)cc23)nc2c1C(C)(C)C(=O)N2` [Example 29], in assay [1], the MEC amounted to 0.3 µM. In addition, in assay [2], the IC50 stood at 12 nM.
As for `CC1(CNC(=O)c2nc(-c3nn(Cc4ccccc4F)c4ncccc34)nc3c2C(C)(C)C(=O)N3)COC1` [Example 103, 2-[1-(2-fluorobenzyl)-1H-pyrazolo[3,4-b]pyridin-3-yl]-5,5-dimethyl-N-[(3-methyloxetan-3-yl)methyl]-6-oxo-6,7-dihydro-5H-pyrrolo[2,3-d]pyrimidine-4-carboxamide], the MEC in assay [1] is 0.3 µM. In assay [2], the IC50 was 10 nM.
